# Test results taken from ChEMBL document CHEMBL1138504, “Lipophilicity of basic drugs measured by hydrophilic interaction chromatography” (J Med Chem, 2009).
# Experiments:
# [1] = octanol/water
# [2] = buffer, pH 2
# physchem [3] = conditions: octanol/water
# physchem [4] = assay: physchem
# [5] = buffer, pH 2; remark: listed apart in the source
Structure (SMILES),logPc [1],log K [2],logP (physchem [3]),pKa (physchem [4]),log K [5]
CC(C)(C)NC[C@H](O)COc1nsnc1N1CCOCC1 [TIMOLOL],-0.94,0.08,2.12,9.53,0.9
CC(C)NCC(O)COc1cccc2[nH]ccc12 (stereo unspecified) [PINDOLOL],-1.32,0.08,–,–,1.63
CN1CCC[C@H]1c1cccnc1 [NICOTINE],–,0.14,1.34,3.4,-0.02
COC(=O)[C@@H](N)Cc1ccc(O)cc1 [TYROSINE METHYL ESTER],–,0.57,–,–,0.26
CCCNC(C)C(=O)Nc1ccccc1C (stereo unspecified) [PRILOCAINE],–,-0.17,–,7.8,0.93
O=C1C[C@@H]2OCC=C3CN4CC[C@]56c7ccccc7N1[C@H]5[C@H]2[C@H]3C[C@H]46 [STRYCHNINE],–,0.06,–,–,1.18
CN1CCc2cccc3c2[C@H]1Cc1ccc(O)c(O)c1-3 [APOMORPHINE],–,0.33,2.49,–,2.74
CC(C)NCC(O)COc1cccc2[nH]c3ccccc3c12 (stereo unspecified) [CARAZOLOL],0.77,-0.01,–,9.52,2.97
Cc1cccc(C)c1NC(=O)C1CCCCN1C (stereo unspecified) [MEPIVACAINE],–,-0.18,–,7.6,0.85
C1COC(NC(C2CC2)C2CC2)=N1 [RILMENIDINE],–,-0.41,1.7,9.22,0.88
CC([C@H](O)c1ccccc1)N(C)C (stereo partly specified) [METHYLEPHEDRINE],–,-0.14,1.55,9,0.64
NCCO [MONOETHANOLAMINE],–,1.1,–,0.92,-0.54
C=CCc1ccccc1OCC(O)CNC(C)C (stereo unspecified) [ALPRENOLOL],0.25,-0.36,–,–,2.02
NCCc1c[nH]c2ccc(O)cc12 [SEROTONIN],–,1.15,–,–,1.19
CC(C)NCC(O)COc1cccc2ccccc12 (stereo unspecified) [PROPRANOLOL],–,-0.19,–,–,2.71
COCCc1ccc(OCC(O)CNC(C)C)cc1 (stereo unspecified) [METOPROLOL],-1.1,-0.27,–,–,1.1
C1COCCN1 [MORPHOLINE],–,0.48,–,–,-0.27
CN(C)Cc1ccccc1,–,-0.23,1.91,9.02,0.43
CC(C)(C)NCC(O)COc1cccc2c1CC(O)C(O)C2 (stereo unspecified) [NADOLOL],–,0.5,0.81,–,0.59
C=CCOc1ccccc1OCC(O)CNC(C)C (stereo unspecified) [OXPRENOLOL],-0.13,-0.34,–,9.57,1.43
CC(C)(C)NC[C@H](O)COc1ccccc1C1CCCC1 [PENBUTOLOL],1.32,-0.51,4.62,9.92,3.08
COc1ccccc1OCCNCC(O)COc1cccc2[nH]c3ccccc3c12 (stereo unspecified) [CARVEDILOL],1.92,-0.2,–,7.97,3.1
CC(=O)Oc1cc(C(C)C)c(OCCN(C)C)cc1C [MOXISYLYTE],–,-0.86,–,8.72,1.53
CC(=O)Oc1c(C)cc(OCC(O)CNC(C)C)c(C)c1C (stereo unspecified) [METIPRANOLOL],-0.26,-0.5,–,9.54,1.57
CC(C)NCC(O)COc1ccc(COCCOC(C)C)cc1 (stereo unspecified) [BISOPROLOL],-1.22,-0.41,–,–,1.17
CCN(CC)CCOC(=O)c1ccc(N)cc1 [PROCAINE],–,-0.26,–,9,1.05
NCC(O)c1ccc(O)cc1 (stereo unspecified) [OCTOPAMINE],–,1.15,–,8.81,0.44
CCCCN [BUTYLAMINE],–,0.29,–,10.8,0.756
